Reference: patent US8178522B2, “Thiazoles” (Hoffmann-La Roche Inc., priority 2009, dated 2012)

target: T1, GABA A α5 (α5β3γ2) (Homo sapiens, UniProt P18507+P31644); assay: [3H]flumazenil competition binding, human GABA A α5 receptor; details: human receptor α5β3γ2 transiently transfected in HEK293 cells; competition for [3H]flumazenil 0.5 nM; 1 hour at 4° C.; means of two determinations; read-out: hKi GABA A α5
T1 construct: expressed in transfected cells; host or cells: HEK293, transiently transfected; membrane preparation
Experimental: Membrane Preparation and Binding Assay
The affinity of compounds at GABA A receptor subtypes was measured by competition for [3H]flumazenil (85 Ci/mmol; Roche) binding to HEK293 cells expressing rat (stably transfected) or human (transiently transfected) receptors of compositional α1β3γ2, α2β3γ2, α3β3γ2 and α5β3γ2.
Cell pellets were suspended in Krebs-tris buffer (4.8 mM KCl, 1.2 mM CaCl2, 1.2 mM MgCl2, 120 mM NaCl, 15 mM Tris; pH 7.5; binding assay buffer), homogenized by polytron for ca. 20 sec on ice and centrifuged for 60 min at 4° C. (50000 g; Sorvall, rotor: SM24=20000 rpm). The cell pellets were re-suspended in Krebs-tris buffer and homogenized by polytron for ca. 15 sec on ice. Protein was measured (Bradford method, Bio-Rad) and aliquots of 1 mL were prepared and stored at −80° C.
Assays were incubated to equilibrium for 1 hour at 4° C. and harvested onto GF/C uni-filters (Packard) by filtration using a Packard harvester and washing with ice-cold wash buffer (50 mM Tris; pH 7.5). After drying, filter-retained radioactivity was detected by liquid scintillation counting. Ki values were calculated using Excel-Fit (Microsoft) and are the means of two determinations.

Compound	Ki
Cc1nc(CCc2c(-c3ccccc3)noc2C)sc1C(=O)NC(C)CO (racemic) [Example 3, Rac-4-Methyl-2-[2-(5-methyl-3-phenyl-isoxazol-4-yl)-ethyl]-thiazole-5-carboxylic acid (2-hydroxy-1-methyl-ethyl)-amide]	7.9 nM
CCCCc1noc(C)c1/C=C/c1nc(C)c(C(=O)NC(CC)CO)s1 (racemic) [Example 104, Rac-2-[(E)-2-(3-Butyl-5-methyl-isoxazol-4-yl)-vinyl]-4-methyl-thiazole-5-carboxylic acid (1-hydroxymethyl-propyl)-amide]	3.1 nM
CCCCc1noc(C)c1COc1ncc(C(=O)NC(C)CO)s1 (racemic) [Example 133, Rac-2-(3-Butyl-5-methyl-isoxazol-4-ylmethoxy)-thiazole-5-carboxylic acid (2-hydroxy-1-methyl-ethyl)-amide]	19.2 nM
CCCCc1noc(C)c1/C=C/c1nc(C)c(C(=O)NC2CCCC2O)s1 (stereo in doubt) [Example 114, 2-[(E)-2-(3-Butyl-5-methyl-isoxazol-4-yl)-vinyl]-4-methyl-thiazole-5-carboxylic acid ((1R,2R)-2-hydroxy-cyclopentyl)-amide]	6.4 nM
Cc1nc(CCc2c(-c3ccccc3)noc2C)sc1C(=O)NCC(C)(C)O [Example 4, 4-Methyl-2-[2-(5-methyl-3-phenyl-isoxazol-4-yl)-ethyl]-thiazole-5-carboxylic acid (2-hydroxy-2-methyl-propyl)-amide]	37.8 nM
Cc1nc(CCc2c(-c3ccccc3)noc2C)sc1C(=O)NC1CCOCC1 [Example 5, 4-Methyl-2-[2-(5-methyl-3-phenyl-isoxazol-4-yl)-ethyl]-thiazole-5-carboxylic acid (tetrahydro-pyran-4-yl)-amide]	8.2 nM
Cc1nc(CCc2c(-c3ccccc3)noc2C)sc1C(N)=O [Example 6, 4-Methyl-2-[2-(5-methyl-3-phenyl-isoxazol-4-yl)-ethyl]thiazole-5-carboxylic acid amide]	33.7 nM
Cc1onc(-c2ccccc2)c1CCc1ncc(C(=O)NC(C)C)s1 [Example 7, 2-[2-(5-Methyl-3-phenyl-isoxazol-4-yl)-ethyl]-thiazole-5-carboxylic acid isopropyl-amide]	13.8 nM

More lines, in order of falling Ki, values ahead:

Ki	Compound
20.3 nM	COC(=O)c1sc(CCc2c(-c3ccccn3)noc2C)nc1C [Example 8, 4-Methyl-2-[2-(5-methyl-3-pyridin-2-yl-isoxazol-4-yl)-ethyl]-thiazole-5-carboxylic acid methyl ester]
15.2 nM	CCCCc1noc(C)c1CCc1nc(C)c(C(=O)NC2CCOC2)s1 (racemic) [Example 52, Rac-2-[2-(3-Butyl-5-methyl-isoxazol-4-yl)-ethyl]-4-methyl-thiazole-5-carboxylic acid (tetrahydro-furan-3-yl)-amide]
10.9 nM	Cc1nc(CCc2c(-c3ccccc3)noc2C)sc1C(=O)NC1CCOC1 (stereo in doubt) [Example 2, (S)-4-Methyl-2-[2-(5-methyl-3-phenyl-isoxazol-4-yl)-ethyl]-thiazole-5-carboxylic acid (tetrahydro-furan-3-yl)-amide]
5.7 nM	Cc1nc(CCc2c(-c3ccccc3)noc2C)sc1C(=O)NC(C)C [Example 1, 4-Methyl-2-[2-(5-methyl-3-phenyl-isoxazol-4-yl)-ethyl]-thiazole-5-carboxylic acid iso-propylamide]
4.7 nM	CCCCc1noc(C)c1/C=C/c1nc(C)c(C(=O)NC(C)CO)s1 (racemic) [Example 97, Rac-2-[(E)-2-(3-Butyl-5-methyl-isoxazol-4-yl)-vinyl]-4-methyl-thiazole-5-carboxylic acid (2-hydroxy-1-methyl-ethyl)-amide]
1.7 nM	Cc1onc(-c2ccccc2)c1/C=C/c1ncc(C(=O)NC2CCOC2)s1 (stereo in doubt) [Example 64, (S)-2-[(E)-2-(5-Methyl-3-phenyl-isoxazol-4-yl)-vinyl]-thiazole-5-carboxylic acid (tetra-hydro-furan-3-yl)-amide]
